Experimental data taken from patent US10093627B2, “Tetrahydroquinoline derivatives and their use as Epac inhibitors” (Institut National de la Sante et de la Recherche Medicale …, priority 2012, dated 2018).

Test system: Iso-induced ANF-Luc transcriptional activation
Test: ANF-Luc transcriptional activation (Firefly luciferase assay) in rat neonatal cardiomyocytes
Type: cell-based
Conditions: Iso 10 μM, 8 h; FIG. 4A
Method: ANF and NFAT promoters were fused to the Firefly luciferase gene (ANF-Luc) (NFAT-Luc) to detect ANF and NFAT by Firefly Luciferase assay (see Materiel and Methods).
Rat neonatal cardiomyocytes were cotransfected with ANF-Luc and Epac1 or empty vector pcDNA3 as control. One day after transfection, cells were pretreated or not with CE3F4 (20 μM) for 30 min and stimulated or not with Iso (10 μM) for 8 h. Cells were then assayed for Luciferase activity. B) Iso-induced NFAT-Luc Transcriptional Activation is Blocked by CE3F4: Neonatal cardiomyocytes were transfected with NFAT-Luc. One day later cells were pretreated or not with CE3F4 (20 μM) for 30 min and stimulated or not with Iso (10 μM) for 8 h. The day after, cells were assayed for Luciferase activity.
Results were normalized to control for each experiment, and were expressed as means±S.E.M of at 4 (FIG. 4A) or 5 (FIG. 4B) independent experiments performed in triplicates.
The rat ANF promoter fused to the Firefly luciferase reporter gene (ANF-Luc) by Dr K. Knowlton, Epac and Rap1 plasmid construct (Epac1^WT) by Drs J. L. Bos and J. de Gunzburg, respectively. The Firefly luciferase reporter plasmid driven by four NFAT consensus binding sites (NFAT-Luc) was purchased from Stratagene. […]
Cells were lysed, and luminescence was detected using the Luciferase Assay System (Promega) according to the manufacturer's instructions with Tecan Infinite.

Effect of agonist on ANF (ANF-Luc): increased ANF
Compound: CC(C)NCC(O)c1ccc(O)c(O)c1 (stereo not shown) [Iso, Isoprenaline, reference compound]
